Results: patent US8653027B2, “Method of treatment of type-1 diabetes with humanin analogues” (The Regents of the University of California, priority 2007, dated 2014)
“Also recorded” adds a separate entry of the source. Where two headings read alike, the source gives them in different places.

Legend:
[1] = tested on: NOD mice; test: Insulitis scoring of pancreatic sections from NOD mice; assay type: in vivo, mouse; details: humanin-treated NOD mice vs vehicle-treated control
Text: To test whether administration of humanin regulates the extent of lymphocyte infiltration into pancreatic islets, fixed and embedded pancreatic tissues were examined. Pancreata from humanin-treated NOD mice were formalin fixed, stained with hematoxylin/eosin, and assessed in a blinded fashion to determine the degree of lymphocyte infiltration. Results were compared to tissues from saline-injected control mice. Three or four randomly selected and nonadjacent sections from each pancreas were scored independently by two blind observers and evaluated for mononuclear cell infiltration. Severity of infiltration was classified based on the degree of lymphocytic infiltration as follows: G0—normal (no infiltration); G1—peri-insulitis (mononuclear cells surrounding islets and ducts but no infiltration of the islet architecture); G2—moderate insulitis (mononuclear cells infiltrating less than 50% of the islet architecture); and G3—severe insulitis (more than 50% of the islet tissue infiltrated by lymphocytes, accompanied by a reduction in insulin staining). See Pastorale et al. (2002) Exp Biol Med (Maywood) 227:282-89.

[2] = tested on: NOD mice; test: Onset of diabetes in NOD mice over 20-week treatment; assay type: in vivo, mouse; details: female NOD mice, 0.7 mg/kg/d IP daily from 5 weeks of age, vs saline, 0.7 mg/kg/day
Method: Four-week-old female NOD mice were treated with humanin. Before treatment, mice were tested two to three times per week for nonfasting blood glucose levels. Mice with blood glucose levels higher than 300 mg/dL on three consecutive measurements were considered diabetic. Beginning at 5 weeks of age, two groups of NOD mice (n=25 each) were administered (0.7 mg/kg/d) synthetic humanin by IP injection daily (Bachem). NOD mice injected with the same volume of saline served as negative controls.

[3] = tested on: NIT-1 insulinoma cells; test: Serum starvation-induced apoptosis of NIT-1 cells, histone-associated DNA ELISA; assay type: cell-based, Mouse; details: NIT-1 cells serum starved 24 hours, humanin 1 to 10000 nM
Method: Secondary to the pro-survival effect of humanin observed in neuronal cells, we hypothesized that humanin could be a survival factor for neuroendocrine beta cells. Mouse NIT-1 insulinoma cells were serum starved for 24 hours as control, and compared to cultures co-incubated with increasing doses of humanin ranging from 1 to 10000 nM.
Conditions were as follows: NIT-1 cells were purchased from ATCC and maintained in F-12 Ham's medium (F12-K) supplemented with 10% FBS (fetal bovine serum), 10% L-glutamine, Penicillin (100 U/ml) and Streptomycin (100 μg/ml), in 25 cm^2 tissue culture flasks (Greiner, Frickenhausen, Germany). NIT-1 cells were maintained at 37 C in a 5% CO2/95% air mixture and were passaged twice weekly by trypsination (Invitrogen life technologies, Karlsruhe, Germany). For the experiment, NIT-1 cells were seeded in 96-well plates at a density of 0.128×10^5 cells per well. After about 24 hours, medium was changed to FCS-free medium.
Apoptosis was quantified by a specific histone-associated DNA ELISA.

[4] = tested on: NIT-1 cells; test: Caspase 3/7 fluorometric assay (ApoONE) of cytokine-induced apoptosis in NIT-1 cells; assay type: cell-based, Mouse
Method: Apoptosis is the main form of pancreatic beta cell death in animal models of type 1 diabetes mellitus. […] In this study, we used a caspase 3/7 specific fluorometric assay (ApoONE, Promega) to measure the degree of apoptosis induction by cytokines in NIT-1 cells.
Cells were cultured as described above. For the experiment, NIT-1 cells were seeded in 96-well plates at a density of 0.128×10^5 cells per well. After about 24 hours, medium was changed to FCS-free medium and the cells were exposed to TNF-α (5 ng/mL) or were kept untreated as controls. As expected, TNF-α induced apoptosis in NIT-1 cells at 48 hours.
TNF-α increased apoptosis approximately 40% compared to serum-deprived cells.

[5] = tested on: STAT3; test: STAT3 phosphorylation in NIT-1 cells by immunoblotting; assay type: cell-based, Mouse; details: 100 nM HN, serum free media
Method: (§1) To investigate the mechanism of Humanin-induced beta cell survival, we treated NIT-1 cells with 100 nM HN in serum free media. Cell lysates were harvested and phosphorylated ERK1/2 and STAT3 were assessed by immunoblotting.
(§2) Phosphorylation of ERK (activation) occurred 15 minutes after adding HN. Phosphorylation of STAT3 (activation) was a later event, 4 hours after addition of HN (FIG. 2).

[6] = target: IGFBP-3 (Homo sapiens, UniProt P17936); test: IGFBP-3 binding
Sequence of IGFBP-3 (P17936 28-291, species assumed): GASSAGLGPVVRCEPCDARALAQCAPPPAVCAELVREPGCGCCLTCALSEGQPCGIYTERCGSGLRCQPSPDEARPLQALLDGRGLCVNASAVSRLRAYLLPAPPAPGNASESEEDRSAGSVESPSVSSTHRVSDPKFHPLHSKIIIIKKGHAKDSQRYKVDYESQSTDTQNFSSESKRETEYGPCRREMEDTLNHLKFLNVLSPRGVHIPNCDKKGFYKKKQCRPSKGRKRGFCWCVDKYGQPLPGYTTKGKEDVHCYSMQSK

[7] = tested on: ERK1/2; test: ERK1/2 phosphorylation in NIT-1 cells by immunoblotting; assay type: cell-based, Mouse; details: 100 nM HN, serum free media
Method: as §1, §2

[8] = tested on: NOD mice; assay type: in vivo; details: for glucose tolerance (response to glucose challenge): NOD mice, 0.7 mg/kg/d IP for 6 weeks, fasted overnight, vs saline
Method: As proof of principle, we examined whether a 6-week course of daily IP injected humanin (0.7 mg/kg/d) to euglycemic 9-week-old NOD mice (Taconic) could improve glucose tolerance as compared to saline-injected control mice (n=12/group). […] At the conclusion of the treatment, mice were fasted overnight and divided into groups that were subjected to IP insulin and glucose tolerance testing (n=6/group). […] We additionally harvested serum, pancreata, and various other organs from these mice for histological studies and analysis of serum humanin, IGFBP-3, and other IGF-related peptides.

[9] = tested on: normal (wild-type) MEFs; test: Apoptosis ELISA in normal (wild-type) mouse embryonic fibroblasts; assay type: cell-based; details: 100 nM peptide, 24 hours
Method: (§3) Mouse embryonic fibroblasts (MEFs) derived from normal (wild-type) and IGFBP3 deficient mice were used to test the effects of humanin and its analogues on survival. Apoptosis was measured after 24 hours with 100 nM of each peptide by ELISA. […] The increased potency seems to result from the lack of IGFBP-3 binding, because there is no additional advantage when IGFBP-3 is not present. Thus, F6A-HNG is distinct from previously described humanin derivatives.

[10] = tested on: IGFBP-3 deficient MEFs; test: Apoptosis ELISA in IGFBP-3 deficient mouse embryonic fibroblasts; assay type: cell-based; details: 100 nM peptide, 24 hours
Method: as §3

[11] = tested on: NIT cells; test: Survival and STAT-3/ERK activation in NIT cells, potency compared to humanin; assay type: cell-based
[12] = tested on: NONcNZO10/LtJ mice; test: IP glucose tolerance test in NONcNZO10/LtJ mice (obesity-induced type 2 diabetes model); assay type: in vivo, mouse; details: 25 μg IP twice a day for 14 days
Method: NONcNZO10/LtJ mice are a model for obesity-induced type 2 diabetes. NONcNZO10/LtJ mice were injected IP with 25 μg F6A-HNG twice a day for 14 days. Mice were subjected to 6 hour fast followed by an IP GTT on D15. Baseline glucose measurement was taken and the mice were injected IP with 0.5 mg/g glucose. Glucose was sampled at 0 and 90, 120 min.

## Humanin: 24 amino acid peptide, SEQ ID NO:1 MAPRGFSCLLLLTSEIDLPVKRRA
[1]
  total number of islets infiltrated by lymphocytes: significantly decreased
[1]; grades G0-G3
  severity of lymphocyte infiltration (insulitis): significantly decreased; also recorded: decreased insulitis severity
[2]
  onset of diabetes: delays onset of diabetes
[2]; listed as humanin
  onset of diabetes: significantly delayed the onset of diabetes
[3]
  protection from serum-starvation induced apoptosis: potently protected beta cells from serum-starvation induced apoptosis in a dose dependent manner
[3]; listed as humanin
  protection from serum-starvation induced apoptosis: reduced the level of apoptosis
[4]; FCS-free medium, humanin 10 to 1000 nM
  protection from serum starvation induced apoptosis (caspase 3/7 assay): protects beta cells from cytokine-induced apoptosis and serum starvation induced apoptosis in a dose-dependent manner
[4]; TNF-α 5 ng/mL, 48 hours, humanin 10 to 1000 nM, caspase 3/7 assay
  protection from TNF-α induced apoptosis: protected beta cells from TNF-α induced apoptosis in a dose dependent manner
[5]
  STAT3 activation: activates ERK and STAT3
  time of phosphorylation of STAT3 (activation) after addition of HN: 4 h
[6]
  IGFBP-3 binding: binds IGFBP-3
[7]
  ERK activation: activates ERK
  time of phosphorylation of ERK (activation) after adding HN: 15 min
[8]
  glucose tolerance (response to glucose challenge): improves glucose tolerance
[8]; listed as humanin
  glucose tolerance (response to glucose challenge): non-diabetic response to glucose challenge
[8]; mouse, in vivo, ip, 0.7 mg/kg/day
  tolerability of daily IP injections: tolerated well

## TNF-α [reference compound]
[4]; TNF-α 5 ng/mL, 48 hours
  increase of apoptosis compared to serum-deprived cells: approximately 40%

## F6A-HNG: humanin analogue, SEQ ID NO:16 MAPRGASCLLLLTGEIDLPVKRRA (synthetic humanin (HN) analogue F6A-HNG)
[9]
  potency on survival (apoptosis) in normal MEFs: more potent
[10]
  potency on survival (apoptosis) in IGFBP-3 deficient MEFs: equal potency
[6]
  IGFBP-3 binding: does not bind IGFBP-3; also recorded: devoid of IGFBP-3 binding activity
[11]
  potency in promoting survival and activating STAT-3 and ERK, compared to humanin: even greater potency
[12]; IP GTT on D15
  glucose levels at 90 and 120 min: significantly lower
[12]; IP GTT on D15 after 6 hour fast, 0.5 mg/g glucose
  glucose tolerance: significantly better glucose tolerance

## F6AK21A-HNG: humanin analogue, SEQ ID NO:17 MAPRGASCLLLLTGEIDLPVARRA (synthetic humanin (HN) analogue F6AK21A-HNG)
[11]
  potency in promoting survival and activating STAT-3 and ERK, compared to humanin: even greater potency

## Z-HN: humanin analogue, SEQ ID NO:18 MAKRGLNCLPHQVSEIDLSVQKRI (synthetic humanin (HN) analogue Z-HN)
[11]
  potency in promoting survival and activating STAT-3 and ERK, compared to humanin: two-fold greater potency than humanin

## HNG: humanin analogue, SEQ ID NO:2 MAPRGFSCLLLLTGEIDLPVKRRA (synthetic humanin (HN) analogue S14G-HN (HNG))
[10]
  potency on survival (apoptosis) in IGFBP-3 deficient MEFs: equal potency
